pIC50: −log10 of the molar value.
Columns and labels:
human CYP3A4 = target: T1, human CYP3A4 (Homo sapiens, UniProt P08684); test: Inhibitory activity against human CYP3A4 (7-benzyloxyquinoline substrate, expression system microsome); type: in vitro ADME; conditions: substrate 7-BQ 40 μM, expression system microsome 0.25 mg/mL, 30 minutes incubation, fluorescence
T1 construct: purchased Daiichikagakuyakuhin
Protocol: Inhibitory activity against human CYP3A4 of the compound of the present invention can be evaluated by an improved method described in Drug Metabolism and Disposition, Vol. 28(12), 1440-1448 (2000).
For example, a reaction solution consisted of potassium phosphate buffer (pH 7.4) (final concentration: 200 mM), magnesium chloride hexahydrate (final concentration: 5 mM), substrate (7-benzyloxyquinoline (7-BQ), final concentration: 40 μM), and expression system microsome (Daiichikagakuyakuhin, final concentration: 0.25 mg/mL) was prepared. 100 μL of the reaction solution is dispensed in 96 well plate, and added by 50 μL of an aqueous solution containing test a compound and 0.8% acetonitrile, to carry out 10 minutes of preincubation at 37° C. 50 μL of a reduced nicotinamide adenine dinucleotide phosphate (NADPH, 4 mM) is added to initiate a reaction. The fluorescence intensity of each well was measured at the time when NADPH was added and after incubated for 30 minutes. Excitation wavelength at 409 nm and emission wavelength at 530 nm of quinolinol, which is metabolite of substrate, was measured. Inhibition ratio (%) of the test compound was calculated by the following calculation formula to obtain IC50 value. Inhibition ratio(%)=[1−{(measured value when a test compound is added)−(blank value)/(control value−blank value)}]×100

human CCR5 = human CCR5 (Homo sapiens, UniProt P51681); test: CCR5 binding test ([125I]MIP-1β binding inhibition); conditions: inhibition of [125I]MIP-1β (0.1 nM) binding to membrane fraction of human CCR5 stably over-expressing CHO-K1 cell, 25° C., 120 minutes
Sequence of human CCR5 (P51681 whole entry): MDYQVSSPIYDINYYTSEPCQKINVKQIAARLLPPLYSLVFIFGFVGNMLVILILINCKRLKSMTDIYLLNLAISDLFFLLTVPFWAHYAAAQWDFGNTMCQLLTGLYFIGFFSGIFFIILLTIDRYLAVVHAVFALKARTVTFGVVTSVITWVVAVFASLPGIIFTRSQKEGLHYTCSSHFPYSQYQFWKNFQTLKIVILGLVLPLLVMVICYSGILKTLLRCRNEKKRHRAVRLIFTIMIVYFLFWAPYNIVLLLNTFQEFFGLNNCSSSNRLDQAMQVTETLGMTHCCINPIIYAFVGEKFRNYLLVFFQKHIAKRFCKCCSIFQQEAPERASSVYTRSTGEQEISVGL
Protocol: A membrane fraction of the human CCR5 stably over-expressing CHO-K1 cell was suspended in assay buffer (50 mM HEPES/0.5% BSA/1 mM calcium chloride/5 mM magnesium chloride, pH 7.4) and dispensed in a 48 well polypropylene plate with U-shaped bottom in the amount corresponding to 1 μg of protein/well. Then, an unlabelled ligand was added so as to obtain a concentration of 0.1 μM in a non-specific binding group, while a compound was added so as to obtain a final concentration of 0.003 to 0.3 μM in a compound group. Subsequently, [^125I]MIP-1β was added so as to obtain a final concentration of 0.1 nM and a mixture thereof was incubated at 25° C. for 120 minutes. The membrane fraction was trapped with a filter, washed, and then radioactivity of [^125I]MIP-1β was measured by a γ counter.
Inhibition ratio (%) of the test compound was calculated by the following calculation formula. Inhibition ratio=[(Ec−Ea)/Ec]×100 • Ec: Radioactivity of when DMSO control solution is added−radioactivity of non-specific binding group • Ea: Radioactivity of when test compound is added−radioactivity of non-specific binding group

T1 sequence (P08684 whole entry): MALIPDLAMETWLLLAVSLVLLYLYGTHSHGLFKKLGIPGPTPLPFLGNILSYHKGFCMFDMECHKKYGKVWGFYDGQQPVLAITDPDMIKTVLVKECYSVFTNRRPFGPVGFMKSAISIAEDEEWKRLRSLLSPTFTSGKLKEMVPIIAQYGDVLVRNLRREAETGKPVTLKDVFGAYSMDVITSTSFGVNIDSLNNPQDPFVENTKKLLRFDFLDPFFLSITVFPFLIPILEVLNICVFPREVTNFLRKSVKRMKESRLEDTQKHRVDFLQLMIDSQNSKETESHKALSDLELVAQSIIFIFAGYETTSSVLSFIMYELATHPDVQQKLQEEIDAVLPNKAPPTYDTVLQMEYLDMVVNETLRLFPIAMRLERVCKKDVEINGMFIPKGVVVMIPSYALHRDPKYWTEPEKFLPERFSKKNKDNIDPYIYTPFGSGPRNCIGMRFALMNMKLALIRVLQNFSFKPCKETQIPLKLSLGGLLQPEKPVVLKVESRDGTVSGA

Row | SMILES | pIC50 (human CYP3A4) | pIC50 (human CCR5)
1 | CCCCN(C(=O)Nc1cc(C(N)=O)c(F)cc1F)C1CCN(Cc2ccc(Oc3ccc(C(=O)N4CCN(C(C)=O)CC4)cc3)nc2C)CC1 [Example 16(60), 5-{[{1-[(6-{4-[(4-acetyl-1-piperazinyl)carbonyl]phenoxy}-2-methyl-3-pyridinyl)methyl]-4-piperidinyl}(butyl)carbamoyl]amino}-2,4-difluorobenzamide] | ≤ 4.52 | 
2 | CCCCN(C(=O)Nc1cc(C(N)=O)c(F)cc1F)C1CCN(Cc2ccc(Oc3ccc(C(=O)N(C)C)cc3)nc2C)CC1 [Example 16(61), 5-({butyl[1-({6-[4-(dimethylcarbamoyl)phenoxy]-2-methyl-3-pyridinyl}methyl)-4-piperidinyl]carbamoyl}amino)-2,4-difluorobenzamide] | ≤ 4.52 | ≥ 7.00
3 | CCCCN(C(=O)Nc1cc(C(N)=O)c(F)cc1F)C1CCN(Cc2ccc(Oc3ccc(C(=O)NCC)cc3)nc2C)CC1 [Example 16(62), 5-({butyl[1-({6-[4-(ethylcarbamoyl)phenoxy]-2-methyl-3-pyridinyl}methyl)-4-piperidinyl]carbamoyl}amino)-2,4-difluorobenzamide] |  | ≥ 7.00
4 | CCCCN(C(=O)Nc1cc(C(N)=O)c(F)cc1F)C1CCN(Cc2ccc(Oc3ccc(C(=O)N4CCN(C)CC4)cc3)nc2C)CC1 [Example 16(63), 5-[(butyl {1-[(2-methyl-6-{4-[(4-methyl-1-piperazinyl)carbonyl]phenoxy}-3-pyridinyl)methyl]-4-piperidinyl}carbamoyl)amino]-2,4-difluorobenzamide] | ≤ 4.52 | 
